Source: patent publication US7528115B2, “Carbonate and carbamate prodrugs of thiazolo[4,5-d]pyrimidines” (Anadys Pharmaceuticals, Inc., priority 2006, dated 2009)

Test: Animal PK: oral availability of 53b in cynomolgus monkeys after dosing of Formula I prodrugs
Format: in vivo
Details: 53b dosed IV
Experimental: The ability of prodrugs of the present invention to deliver 53a or 53b to the systemic circulation after oral dosing was assessed by methods well known in the art. For Table 1, each test compound was formulated into a solution for oral dosing by dissolving the compound in either an aqueous buffer such as PBS at pH 3 or pH 7 (in a solution of 100% propylene glycol), or in a solution containing a solubilizer such as Cremophor EL, Tween80, or PEG400. The solution of the compound was dosed by oral gavage to cynomolgus monkeys, generally using a group of four animals for each experiment. Plasma samples were collected from the animals at several time points (usually, from 6 to 12 time points were used) within 24 hours. The plasma samples were frozen quickly after collection, and thawed immediately before sample preparation for bioanalysis. […]
Calibration standards were prepared by serial dilution of an initial concentrated standard of the analyte with either animal plasma or cell culture media. […] The acceptance of the calibration curves was based on the accuracy of the back-calculated standard concentrations. A standard was accepted if the accuracy was within 15% for all the standards, except for the lower limit of quantitation for which 20% was applied. The fitted calibration curve was used to calculate the quantity of analyte in samples. […]

FPO (10 mg/kg (reference for the ratio)): 1
AUC(0-inf) (cynomolgus monkey, plasma, 10 mg/kg, cynomolgus monkeys, mean of all individual AUC(0-inf) values): 15200 ng·h/mL
Compound: Nc1nc2c(sc(=O)n2C2O[C@H](CO)[C@H](O)[C@H]2O)c(=O)[nH]1 (some centres unmarked) [Compound 53b]
